Reference: ChEMBL document CHEMBL3856229, “Hybrid Antibiotic Overcomes Resistance in P. aeruginosa by Enhancing Outer Membrane Penetration and Reducing Efflux” (J Med Chem, 2016)
Values after ≈ are worked out from the molar mass of the structure shown.

Columns and labels:
Format in all cases: functional
Enterococcus faecium = assay: Antibacterial activity against Enterococcus faecium ATCC 27270 after 24 hrs by microtitre broth dilution method; conditions: ATCC 27270, 24 h
Pseudomonas aeruginosa [1] = assay: Antibacterial activity against multidrug-resistant/tobramycin-susceptible Pseudomonas aeruginosa isolate 86052
Staphylococcus aureus [2] = assay: Antibacterial activity against Staphylococcus aureus ATCC 29213 after 24 hrs by microtitre broth dilution method; conditions: ATCC 29213, 24 h
Escherichia coli [3] = assay: Antibacterial activity against Escherichia coli ATCC 25922 after 24 hrs by microtitre broth dilution method; conditions: ATCC 25922, 24 h
Staphylococcus aureus [4] = assay: Antibacterial activity against methicillin-resistant Staphylococcus aureus ATCC 33592 after 24 hrs by microtitre broth dilution method; conditions: ATCC 33592, 24 h
Pseudomonas aeruginosa [5] = assay: Antibacterial activity against Pseudomonas aeruginosa PAO1
Enterococcus faecalis = assay: Antibacterial activity against Enterococcus faecalis ATCC 29212 after 24 hrs by microtitre broth dilution method; conditions: ATCC 29212, 24 h
Pseudomonas aeruginosa [6] = assay: Antibacterial activity against multidrug-resistant/tobramycin-susceptible Pseudomonas aeruginosa isolate 86067
[7] = system: Staphylococcus epidermidis; assay: Antibacterial activity against methicillin-susceptible Staphylococcus epidermidis isolate CANWARD-2008 81388 after 24 hrs by microtitre broth dilution method; conditions: isolate CANWARD-2008 81388, 24 h
Pseudomonas aeruginosa [8] = assay: Antibacterial activity against pandrug-resistant Pseudomonas aeruginosa isolate 91433
Pseudomonas aeruginosa [9] = assay: Antibacterial activity against Pseudomonas aeruginosa ATCC 27853 after 24 hrs by microtitre broth dilution method; conditions: ATCC 27853, 24 h
Pseudomonas aeruginosa [10] = assay: Antibacterial activity against multidrug/extremely drug-resistant/colistin-susceptible Pseudomonas aeruginosa isolate 100036
Pseudomonas aeruginosa [11] = assay: Antibacterial activity against multidrug-resistant/tobramycin-susceptible Pseudomonas aeruginosa isolate 86079
Acinetobacter baumannii = assay: Antibacterial activity against Acinetobacter baumannii isolate CAN-ICU 63169 after 24 hrs by microtitre broth dilution method; conditions: isolate CAN-ICU 63169, 24 h
Escherichia coli [12] = assay: Antibacterial activity against amikacin-resistant Escherichia coli isolate CAN-ICU 63074 after 24 hrs by microtitre broth dilution method; conditions: isolate CAN-ICU 63074, 24 h
Escherichia coli [13] = assay: Antibacterial activity against gentamicin-resistant Escherichia coli isolate CAN-ICU 61714 after 24 hrs by microtitre broth dilution method; conditions: isolate CAN-ICU 61714, 24 h
Pseudomonas aeruginosa [14] = assay: Antibacterial activity against multidrug/extremely drug-resistant/colistin-susceptible Pseudomonas aeruginosa isolate 260-97103
Streptococcus pneumoniae = assay: Antibacterial activity against Streptococcus pneumoniae ATCC 49619 after 24 hrs by microtitre broth dilution method; conditions: ATCC 49619, 24 h
Klebsiella pneumoniae = assay: Antibacterial activity against Klebsiella pneumoniae ATCC 13883 after 24 hrs by microtitre broth dilution method; conditions: ATCC 13883, 24 h
Pseudomonas aeruginosa [15] = assay: Antibacterial activity against multidrug/extremely drug-resistant/colistin-susceptible Pseudomonas aeruginosa isolate 259-96918
Pseudomonas aeruginosa [16] = assay: Antibacterial activity against multidrug/extremely drug-resistant/colistin-susceptible Pseudomonas aeruginosa isolate 262-101856
Pseudomonas aeruginosa [17] = assay: Antibacterial activity against multidrug/extremely drug-resistant/colistin-susceptible Pseudomonas aeruginosa isolate 264-104354
Pseudomonas aeruginosa [18] = assay: Antibacterial activity against multidrug-resistant/tobramycin-susceptible Pseudomonas aeruginosa isolate 86053
Pseudomonas aeruginosa [19] = assay: Antibacterial activity against multidrug/extremely drug-resistant/colistin-susceptible Pseudomonas aeruginosa isolate 101885
Pseudomonas aeruginosa [20] = assay: Antibacterial activity against gentamicin/tobramycin-resistant Pseudomonas aeruginosa isolate CANWARD-2011 96846 after 24 hrs by microtitre broth dilution method; conditions: isolate CANWARD-2011 96846, 24 h
Pseudomonas aeruginosa [21] = assay: Antibacterial activity against multidrug-resistant/tobramycin-susceptible Pseudomonas aeruginosa isolate 83182
[22] = system: Staphylococcus epidermidis; assay: Antibacterial activity against methicillin-resistant Staphylococcus epidermidis isolate CAN-ICU 61589 after 24 hrs by microtitre broth dilution method; conditions: isolate CAN-ICU 61589, 24 h
[23] = system: Stenotrophomonas maltophilia; assay: Antibacterial activity against Stenotrophomonas maltophilia isolate CAN-ICU 62584 after 24 hrs by microtitre broth dilution method; conditions: isolate CAN-ICU 62584, 24 h
Escherichia coli [24] = assay: Antibacterial activity against gentamicin/tobramycin/ciprofloxacin-resistant Escherichia coli isolate CANWARD-2011 97615 harboring AAC3-2A after 24 hrs by microtitre broth dilution method; conditions: isolate CANWARD-2011 97615, 24 h
Pseudomonas aeruginosa [25] = assay: Antibacterial activity against pandrug-resistant Pseudomonas aeruginosa isolate 101243
Pseudomonas aeruginosa [26] = assay: Antibacterial activity against multidrug-resistant/tobramycin-susceptible Pseudomonas aeruginosa isolate 92014
Pseudomonas aeruginosa [27] = assay: Antibacterial activity against multidrug-resistant/tobramycin-susceptible Pseudomonas aeruginosa isolate 108590
Pseudomonas aeruginosa [28] = assay: Antibacterial activity against multidrug-resistant/tobramycin-susceptible Pseudomonas aeruginosa isolate 84745
Pseudomonas aeruginosa [29] = assay: Antibacterial activity against multidrug-resistant/tobramycin-susceptible Pseudomonas aeruginosa isolate 79199
Pseudomonas aeruginosa [30] = assay: Antibacterial activity against multidrug-resistant/tobramycin-susceptible Pseudomonas aeruginosa isolate 80621
Pseudomonas aeruginosa [31] = assay: Antibacterial activity against multidrug-resistant/tobramycin-susceptible Pseudomonas aeruginosa isolate 86141
Pseudomonas aeruginosa [32] = assay: Antibacterial activity against multidrug-resistant/tobramycin-susceptible Pseudomonas aeruginosa isolate 85322
Pseudomonas aeruginosa [33] = assay: Induction of cytoplasmic membrane depolarization in Pseudomonas aeruginosa PAO1 by DiSC3(5) dye based fluorescence assay

O=C(O)c1cn(C2CC2)c2cc(N3CCNCC3)c(F)cc2c1=O [CIPROFLOXACIN]
MIC (Enterococcus faecium): 8 µg/mL (≈ 24.1 µM) | MIC (Pseudomonas aeruginosa [1]): > 16 µg/mL | MIC (Staphylococcus aureus [2]): ≤ 0.25 µg/mL | MIC (Escherichia coli [3]): ≤ 0.25 µg/mL | MIC (Staphylococcus aureus [4]): ≤ 0.25 µg/mL | MIC (Pseudomonas aeruginosa [5]): < 0.2 µg/mL | MIC (Enterococcus faecalis): 1 µg/mL (≈ 3.02 µM) | MIC (Pseudomonas aeruginosa [6]): 4 µg/mL (≈ 12.1 µM) | MIC [7]: ≤ 0.25 µg/mL | MIC (Pseudomonas aeruginosa [8]): 4 to 8 µg/mL (≈ 12.1 to 24.1 µM) | MIC (Pseudomonas aeruginosa [9]): 1 µg/mL (≈ 3.02 µM) | MIC (Pseudomonas aeruginosa [10]): 64 µg/mL (≈ 193 µM) | MIC (Pseudomonas aeruginosa [11]): > 16 µg/mL | MIC (Acinetobacter baumannii): 2 µg/mL (≈ 6.04 µM) | MIC (Escherichia coli [12]): ≤ 0.25 µg/mL | MIC (Escherichia coli [13]): ≤ 0.25 µg/mL | MIC (Pseudomonas aeruginosa [14]): 16 to 64 µg/mL (≈ 48.3 to 193 µM) | MIC (Streptococcus pneumoniae): 1 µg/mL (≈ 3.02 µM) | MIC (Klebsiella pneumoniae): ≤ 0.25 µg/mL | MIC (Pseudomonas aeruginosa [15]): 256 µg/mL (≈ 773 µM) | MIC (Pseudomonas aeruginosa [16]): 16 to 32 µg/mL (≈ 48.3 to 96.6 µM) | MIC (Pseudomonas aeruginosa [17]): 16 to 32 µg/mL (≈ 48.3 to 96.6 µM) | MIC (Pseudomonas aeruginosa [18]): > 16 µg/mL | MIC (Pseudomonas aeruginosa [19]): 32 µg/mL (≈ 96.6 µM) | MIC (Pseudomonas aeruginosa [20]): 4 µg/mL (≈ 12.1 µM) | MIC (Pseudomonas aeruginosa [21]): 4 µg/mL (≈ 12.1 µM) | MIC [22]: 128 µg/mL (≈ 386 µM) | MIC [23]: 32 µg/mL (≈ 96.6 µM) | MIC (Escherichia coli [24]): 256 µg/mL (≈ 773 µM)

C[C@@H](O)[C@H]1C(=O)N2C(C(=O)O)=C(S[C@@H]3CN[C@H](CNS(N)(=O)=O)C3)[C@H](C)[C@H]12 [DORIPENEM]
MIC (Pseudomonas aeruginosa [25]): 16 µg/mL (≈ 38 µM) | MIC (Pseudomonas aeruginosa [8]): 8 µg/mL (≈ 19 µM) | MIC (Pseudomonas aeruginosa [10]): 5 µg/mL (≈ 11.9 µM) | MIC (Pseudomonas aeruginosa [14]): 32 µg/mL (≈ 76.1 µM) | MIC (Pseudomonas aeruginosa [15]): > 32 µg/mL | MIC (Pseudomonas aeruginosa [16]): 8 µg/mL (≈ 19 µM) | MIC (Pseudomonas aeruginosa [17]): 16 µg/mL (≈ 38 µM) | MIC (Pseudomonas aeruginosa [19]): 0.5 µg/mL (≈ 1.19 µM)

C[C@H]1c2cccc(O)c2C(=O)C2=C(O)[C@]3(O)C(=O)C(C(N)=O)=C(O)[C@@H](N(C)C)[C@@H]3[C@@H](O)[C@@H]21.O [DOXYCYCLINE]
MIC (Pseudomonas aeruginosa [25]): 8 µg/mL | MIC (Pseudomonas aeruginosa [8]): 32 µg/mL | MIC (Pseudomonas aeruginosa [10]): > 32 µg/mL | MIC (Pseudomonas aeruginosa [14]): 32 µg/mL | MIC (Pseudomonas aeruginosa [15]): > 32 µg/mL | MIC (Pseudomonas aeruginosa [16]): > 32 µg/mL | MIC (Pseudomonas aeruginosa [17]): > 32 µg/mL | MIC (Pseudomonas aeruginosa [19]): > 32 µg/mL

C[C@@H](O)[C@H]1C(=O)N2C(C(=O)O)=C(SCCNC=N)C[C@H]12 [IMIPENEM ANHYDROUS]
MIC (Pseudomonas aeruginosa [1]): 32 µg/mL (≈ 107 µM) | MIC (Pseudomonas aeruginosa [26]): 8 µg/mL (≈ 26.7 µM) | MIC (Pseudomonas aeruginosa [6]): > 32 µg/mL | MIC (Pseudomonas aeruginosa [11]): 16 µg/mL (≈ 53.4 µM) | MIC (Pseudomonas aeruginosa [27]): 32 µg/mL (≈ 107 µM) | MIC (Pseudomonas aeruginosa [28]): 16 µg/mL (≈ 53.4 µM) | MIC (Pseudomonas aeruginosa [29]): 4 µg/mL (≈ 13.4 µM) | MIC (Pseudomonas aeruginosa [30]): 32 µg/mL (≈ 107 µM) | MIC (Pseudomonas aeruginosa [18]): 16 µg/mL (≈ 53.4 µM) | MIC (Pseudomonas aeruginosa [31]): 16 µg/mL (≈ 53.4 µM) | MIC (Pseudomonas aeruginosa [21]): 16 µg/mL (≈ 53.4 µM) | MIC (Pseudomonas aeruginosa [32]): 32 µg/mL (≈ 107 µM)

C[C@@H](O)[C@H]1C(=O)N2C(C(=O)O)=C(S[C@@H]3CN[C@H](C(=O)N(C)C)C3)[C@H](C)[C@H]12 [MEROPENEM]
MIC (Pseudomonas aeruginosa [1]): 8 µg/mL (≈ 20.9 µM) | MIC (Pseudomonas aeruginosa [26]): 8 µg/mL (≈ 20.9 µM) | MIC (Pseudomonas aeruginosa [25]): 16 µg/mL (≈ 41.7 µM) | MIC (Pseudomonas aeruginosa [6]): > 32 µg/mL | MIC (Pseudomonas aeruginosa [8]): 8 µg/mL (≈ 20.9 µM) | MIC (Pseudomonas aeruginosa [10]): 4 µg/mL (≈ 10.4 µM) | MIC (Pseudomonas aeruginosa [11]): 32 µg/mL (≈ 83.4 µM) | MIC (Pseudomonas aeruginosa [27]): 8 µg/mL (≈ 20.9 µM) | MIC (Pseudomonas aeruginosa [28]): 16 µg/mL (≈ 41.7 µM) | MIC (Pseudomonas aeruginosa [14]): 16 µg/mL (≈ 41.7 µM) | MIC (Pseudomonas aeruginosa [29]): 16 µg/mL (≈ 41.7 µM) | MIC (Pseudomonas aeruginosa [15]): > 32 µg/mL | MIC (Pseudomonas aeruginosa [16]): 32 µg/mL (≈ 83.4 µM) | MIC (Pseudomonas aeruginosa [30]): 16 µg/mL (≈ 41.7 µM) | MIC (Pseudomonas aeruginosa [17]): > 32 µg/mL | MIC (Pseudomonas aeruginosa [18]): > 32 µg/mL | MIC (Pseudomonas aeruginosa [19]): 1 µg/mL (≈ 2.61 µM) | MIC (Pseudomonas aeruginosa [31]): 16 µg/mL (≈ 41.7 µM) | MIC (Pseudomonas aeruginosa [21]): 16 µg/mL (≈ 41.7 µM) | MIC (Pseudomonas aeruginosa [32]): 16 µg/mL (≈ 41.7 µM)

COLISTIN
MIC (Pseudomonas aeruginosa [1]): 1 µg/mL | Activity (Pseudomonas aeruginosa [33]): Dose-dependent effect | MIC (Pseudomonas aeruginosa [26]): 1 µg/mL | MIC (Pseudomonas aeruginosa [25]): 1020 µg/mL | MIC (Pseudomonas aeruginosa [5]): 1 µg/mL | MIC (Pseudomonas aeruginosa [6]): 0.5 µg/mL | MIC (Pseudomonas aeruginosa [8]): 4 µg/mL | MIC (Pseudomonas aeruginosa [10]): 2 µg/mL | MIC (Pseudomonas aeruginosa [11]): 1 µg/mL | MIC (Pseudomonas aeruginosa [27]): 1 µg/mL | MIC (Pseudomonas aeruginosa [28]): 2 µg/mL | MIC (Pseudomonas aeruginosa [14]): 1 µg/mL | MIC (Pseudomonas aeruginosa [29]): 1 µg/mL | MIC (Pseudomonas aeruginosa [15]): 1 µg/mL | MIC (Pseudomonas aeruginosa [16]): 2 µg/mL | MIC (Pseudomonas aeruginosa [30]): 2 µg/mL | MIC (Pseudomonas aeruginosa [17]): 1 µg/mL | MIC (Pseudomonas aeruginosa [18]): 1 µg/mL | MIC (Pseudomonas aeruginosa [19]): 1 µg/mL | MIC (Pseudomonas aeruginosa [31]): 1 µg/mL | MIC (Pseudomonas aeruginosa [21]): 1 µg/mL | MIC (Pseudomonas aeruginosa [32]): 1 µg/mL

GENTAMICIN
MIC (Pseudomonas aeruginosa [1]): 4 µg/mL | MIC (Pseudomonas aeruginosa [26]): 4 µg/mL | MIC (Pseudomonas aeruginosa [25]): > 32 µg/mL | MIC (Pseudomonas aeruginosa [6]): > 32 µg/mL | MIC (Pseudomonas aeruginosa [8]): 32 µg/mL | MIC (Pseudomonas aeruginosa [10]): > 32 µg/mL | MIC (Pseudomonas aeruginosa [11]): 8 µg/mL | MIC (Pseudomonas aeruginosa [27]): 16 µg/mL | MIC (Pseudomonas aeruginosa [28]): 8 µg/mL | MIC (Pseudomonas aeruginosa [14]): > 32 µg/mL | MIC (Pseudomonas aeruginosa [29]): 4 µg/mL | MIC (Pseudomonas aeruginosa [15]): > 32 µg/mL | MIC (Pseudomonas aeruginosa [16]): > 32 µg/mL | MIC (Pseudomonas aeruginosa [30]): 16 µg/mL | MIC (Pseudomonas aeruginosa [17]): > 32 µg/mL | MIC (Pseudomonas aeruginosa [18]): 4 µg/mL | MIC (Pseudomonas aeruginosa [19]): > 0.5 µg/mL | MIC (Pseudomonas aeruginosa [31]): 8 µg/mL | MIC (Pseudomonas aeruginosa [21]): 4 µg/mL | MIC (Pseudomonas aeruginosa [32]): 4 µg/mL
